This note sets out measurements from patent publication US20250163104A1, “MACROCYCLIC IMMUNOMODULATORS” (priority 2021, published 2025).

The target of the experiment is T1, human PD-1 / PD-L1-Ig binding on Jurkat cell line over-expressing human PD-1 (Jurkat-PD-1) (Homo sapiens, UniProt Q15116).
T1 construct: expressed in transfected cells; host or cells: Jurkat
In words: Jurkat-PD-1 Cell Binding High-Content Screening Assay (CBA). It counts as cell-based. As to conditions: PE-labeled PD-L1-Ig 20 nM final. Summed up: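 Jurkat-hPD-1 cells in DMEM with 10% fetal calf serum receive test compound and are held at 37° C for 2 h. PE-labeled PD-L1-Ig is added at 20 nM final and left for 1 hour. Cells are then fixed and Hoechst-stained, and binding is measured by imaging.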

Setting [1] is: Jurkat-PD-1 cells, read-out: Jurkat HPD1_PDL1 IC50.

Read-outs that look alike come from different tables or passages of the source. Where a SMILES comes first, the peptide text is derived from it. Bridges are numbered along the chain shown (N, C = ends). [ ]: non-standard residue; d: D form. The star is where a group is joined. ξ: configuration not given here. Phe(4-COOH) = N[C@@H](Cc1ccc(C(=O)O)cc1)C(=O)O; Bip = N[C@@H](Cc1ccc(-c2ccccc2)cc1)C(=O)O; Phe(3-Me) = Cc1cccc(C[C@H](N)C(=O)O)c1; Val(3-OH) = CC(C)(O)[C@H](N)C(=O)O; 3Thi = N[C@@H](Cc1ccsc1)C(=O)O; Cha = N[C@@H](CC1CCCCC1)C(=O)O; Cit = NC(=O)NCCC[C@H](N)C(=O)O; dCha = N[C@H](CC1CCCCC1)C(=O)O; Thr(3ξ) = CC(O)[C@H](N)C(=O)O; dNle = CCCC[C@@H](N)C(=O)O; Carboxymethyl = O=C(O)C*; Nle = CCCC[C@H](N)C(=O)O; Orn = NCCC[C@H](N)C(=O)O; Dab = NCC[C@H](N)C(=O)O; Dap = NC[C@H](N)C(=O)O; Propargyl = C#CC*

T1 sequence (Q15116 25-288): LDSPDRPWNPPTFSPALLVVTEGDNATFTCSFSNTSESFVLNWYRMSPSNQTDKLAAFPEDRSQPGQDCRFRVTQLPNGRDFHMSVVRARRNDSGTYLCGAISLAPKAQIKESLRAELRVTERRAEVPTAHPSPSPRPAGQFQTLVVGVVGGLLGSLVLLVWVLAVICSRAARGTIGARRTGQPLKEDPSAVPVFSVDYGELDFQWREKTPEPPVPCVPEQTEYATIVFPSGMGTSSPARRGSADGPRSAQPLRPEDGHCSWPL

Take `Cc1cccc(C[C@@H]2NC(=O)[C@H](CC(=O)O)NC(=O)[C@H](Cc3ccc(OCC(=O)O)cc3)NC(=O)[C@H](C(C)O)NC(=O)CSC[C@@H](C(N)=O)NC(=O)[C@H](C(C)O)NC(=O)[C@H](C(C)C)NC(=O)[C@H](CC3CCCCC3)NC(=O)[C@H](CCN)NC(=O)[C@@H](CC(C)C)NC(=O)[C@H](CCCN)NC(=O)[C@H](C(C)C)NC(=O)[C@H](Cc3ccc(-c4ccccc4)cc3)NC(=O)[C@H](C(C)C)NC2=O)c1` (stereo partly drawn) [Compound 2605] ({CH2CO}-[Thr(3ξ)]Y(Carboxymethyl)D[Phe(3-Me)]V[Bip]V[Orn][dL][Dab][Cha]V[Thr(3ξ)]C-NH2; thioether N-14): the half-maximal inhibitory concentration (IC50) (usually the concentration at which inhibition is half-maximal) under setting [1] was 18.9 nM.
Consider `CCCC[C@H]1NC(=O)[C@H](CCCN)NC(=O)[C@H](C(C)C)NC(=O)[C@H](Cc2ccc(-c3ccccc3)cc2)NC(=O)[C@H](C(C)C)NC(=O)[C@H](Cc2c[nH]c3ccccc23)NC(=O)[C@H](CC(=O)O)NC(=O)[C@H](Cc2ccc(O)cc2)NC(=O)[C@H](CC(N)=O)NC(=O)CSC[C@@H](C(=O)N[C@@H](C)C(N)=O)NC(=O)[C@H]([C@@H](C)O)NC(=O)[C@H](C(C)C)NC(=O)[C@H](CC2CCCCC2)NC(=O)[C@H](CCN)NC1=O` [Compound 1696] ({CH2CO}-NYDWV[Bip]V[Orn][dNle][Dab][Cha]VTCA-NH2; thioether N-14), for which the half-inhibitory concentration (IC50) under setting [1] worked out at 18.7 nM.
As for `Cc1cccc(C[C@@H]2NC(=O)[C@H](CC(=O)O)NC(=O)[C@H](Cc3ccc(C(=O)O)cc3)NC(=O)[C@H](Cc3ccsc3)NC(=O)CSC[C@@H](C(=O)N[C@H](CC(N)=O)C(N)=O)NC(=O)[C@H](CO)NC(=O)[C@H](C(C)(C)O)NC(=O)[C@H](CC3CCCCC3)NC(=O)[C@H](CCN)NC(=O)[C@@H](CC(C)C)NC(=O)[C@H](CCCN)NC(=O)[C@H](Cc3ccc(C(=O)O)cc3)NC(=O)[C@H](Cc3ccc(-c4ccccc4)cc3)NC(=O)[C@H](Cc3ccc(OCC(=O)O)cc3)NC2=O)c1` [Compound 2656] ({CH2CO}-[3Thi][Phe(4-COOH)]D[Phe(3-Me)]Y(Carboxymethyl)[Bip][Phe(4-COOH)][Orn][dL][Dab][Cha][Val(3-OH)]SC[dN]-NH2; thioether N-14), the IC50 under setting [1] is 25 nM.
For `CC[C@H](C)[C@@H]1NC(=O)[C@H](Cc2ccc(-c3ccccc3)cc2)NC(=O)[C@H](C(C)C)NC(=O)[C@H](Cc2cccc(C(F)(F)F)c2)NC(=O)[C@H](CC(=O)O)NC(=O)[C@H](Cc2ccc(OCC(=O)O)cc2)NC(=O)[C@H](Cc2ccncc2)NC(=O)CSC[C@@H](C(=O)N[C@@H](C)C(N)=O)NC(=O)[C@H]([C@@H](C)O)NC(=O)[C@H](C(C)C)NC(=O)[C@H](CC2CCCCC2)NC(=O)[C@H](CCN)NC(=O)[C@@H](CC(C)C)NC(=O)[C@H](CCCN)NC1=O` [Compound 1567], the concentration for half-maximal inhibition (IC50) (Jurkat HPD1_PDL1 IC50, Jurkat-PD-1 cells) amounted to 25.8 nM.
As to `CC(C)C[C@H]1NC(=O)[C@H](CCCN)NC(=O)[C@H](C(C)C)NC(=O)[C@H](Cc2ccc(-c3ccccc3)cc2)NC(=O)[C@H](C(C)C)NC(=O)[C@H](Cc2c[nH]c3ccccc23)NC(=O)[C@H](CC(=O)O)NC(=O)[C@H](Cc2ccc(OCC(=O)O)cc2)NC(=O)[C@H](C(C)O)NC(=O)CSC[C@@H](C(=O)N[C@@H](CCN)C(N)=O)NC(=O)[C@H](C(C)O)NC(=O)[C@H](C(C)C)NC(=O)[C@H](CC2CCCCC2)NC(=O)[C@H](CCN)NC1=O` (stereo partly drawn) [Compound 2601] ({CH2CO}-[Thr(3ξ)]Y(Carboxymethyl)DWV[Bip]V[Orn][dL][Dab][Cha]V[Thr(3ξ)]C[Dab]-NH2; thioether N-14), the IC50 under setting [1] is 12.6 nM.
In the case of `CC(C)C[C@@H]1NC(=O)[C@H](Cc2c[nH]c3ccccc23)NC(=O)[C@H](CC(=O)O)NC(=O)[C@H](Cc2ccc(C(=O)O)cc2)NC(=O)[C@H](Cc2ccc(OCC(=O)O)cc2)NC(=O)CSC[C@@H](C(=O)NCC(N)=O)NC(=O)[C@H](CO)NC(=O)[C@H](C(C)C)NC(=O)[C@H](CC(C)C)NC(=O)[C@H](CC(N)=O)NC(=O)[C@@H](CC(C)C)NC(=O)[C@H](CCN)NC(=O)[C@H](C(C)C)NC(=O)[C@H](Cc2ccc(-c3ccccc3)cc2)NC1=O` [Compound 1279] ({CH2CO}-Y(Carboxymethyl)[Phe(4-COOH)]DWL[Bip]V[Dab][dL]NLVSCG-NH2; thioether N-14), under setting [1], the IC50 came to 13.6 nM.
For `Cc1cccc(C[C@@H]2NC(=O)[C@H](CC(=O)O)NC(=O)[C@H](Cc3ccc(OCC(=O)O)cc3)NC(=O)[C@H](Cc3cccnc3)NC(=O)CSC[C@@H](C(=O)N[C@@H](C)C(N)=O)NC(=O)[C@H]([C@@H](C)O)NC(=O)[C@H](C(C)C)NC(=O)[C@H](CC3CCCCC3)NC(=O)[C@H](Cc3cnc[nH]3)NC(=O)[C@@H](CC(C)C)NC(=O)[C@H](CCCN)NC(=O)[C@H](C(C)C)NC(=O)[C@H](Cc3ccc(-c4ccccc4)cc3)NC(=O)[C@H](C(C)C)NC2=O)c1` [Compound 1587], the half-maximal inhibitory concentration (IC50) under setting [1] stood at 26 nM.
The same measure, in the same setting: next, `C#CCOc1ccc(C[C@@H]2NC(=O)[C@H](Cc3ccc(-c4ccccc4)cc3)NC(=O)[C@H](Cc3ccc(C(=O)O)cc3)NC(=O)[C@H](Cc3cccc(C)c3)NC(=O)[C@H](CC(=O)O)NC(=O)[C@H](Cc3ccc(C(=O)O)cc3)NC(=O)[C@H](CCCC)NC(=O)CSC[C@@H](C(=O)N[C@@H](CCN)C(N)=O)NC(=O)[C@H](CCC(=O)O)NC(=O)[C@H](C(C)C)NC(=O)[C@H](CC3CCCCC3)NC(=O)[C@H](CCN)NC(=O)[C@@H](CC(C)C)NC(=O)[C@H](CCCN)NC2=O)cc1` [Compound 1835] ({CH2CO}-[Nle][Phe(4-COOH)]D[Phe(3-Me)][Phe(4-COOH)][Bip]Y(Propargyl)[Orn][dL][Dab][Cha]VEC[Dab]-NH2; thioether N-14): 6.4 nM.
On to `CC(C)[C@@H]1NC(=O)[C@H](Cc2c[nH]c3ccccc23)NC(=O)[C@H](CC(=O)O)NC(=O)[C@H](Cc2ccc(C(=O)O)cc2)NC(=O)[C@H](Cc2ccc(OCC(=O)O)cc2)NC(=O)CSC[C@@H](C(=O)N[C@@H](C)C(N)=O)NC(=O)[C@H]([C@@H](C)O)NC(=O)[C@H](C(C)C)NC(=O)[C@H](CC2CCCCC2)NC(=O)[C@H](CCN)NC(=O)[C@@H](CC2CCCCC2)NC(=O)[C@H](CCCN)NC(=O)[C@H](C(C)C)NC(=O)[C@H](Cc2ccc(-c3ccccc3)cc2)NC1=O` [Compound 1634] ({CH2CO}-Y(Carboxymethyl)[Phe(4-COOH)]DWV[Bip]V[Orn][dCha][Dab][Cha]VTCA-NH2; thioether N-14), for which, under setting [1], the concentration for half-maximal inhibition (IC50) stood at 20.3 nM.
With `CC(C)C[C@H]1NC(=O)[C@H](CCCN)NC(=O)[C@H](CCCNC(N)=O)NC(=O)[C@H](Cc2ccc(-c3ccccc3)cc2)NC(=O)[C@H](C(C)C)NC(=O)[C@H](Cc2c[nH]c3ccccc23)NC(=O)[C@H](CC(=O)O)NC(=O)[C@H](Cc2csc3ccccc23)NC(=O)[C@H](CN)NC(=O)CSC[C@@H](C(=O)N[C@@H](C)C(N)=O)NC(=O)[C@H]([C@@H](C)O)NC(=O)[C@H](C(C)C)NC(=O)[C@H](CC2CCCCC2)NC(=O)[C@H](CCN)NC1=O` [Compound 2114], under setting [1], the IC50 was determined as 68.9 nM.
In the case of `CC(C)C[C@@H]1NC(=O)[C@H](CC2CCCCC2)NC(=O)[C@H](CCN)NC(=O)[C@@H](CC(C)C)NC(=O)[C@H](CCCN)NC(=O)[C@H](CCCNC(N)=O)NC(=O)[C@H](Cc2ccc(-c3ccccc3)cc2)NC(=O)[C@H](C(C)C)NC(=O)[C@H](Cc2c[nH]c3ccccc23)NC(=O)[C@H](CC(=O)O)NC(=O)[C@H](Cc2ccc(OCC(=O)O)cc2)NC(=O)[C@H](CN)NC(=O)CSC[C@@H](C(=O)N[C@@H](C)C(N)=O)NC(=O)[C@H]([C@@H](C)O)NC1=O` [Compound 1322] ({CH2CO}-[Dap]Y(Carboxymethyl)DWV[Bip][Cit][Orn][dL][Dab][Cha]LTCA-NH2; thioether N-14), under setting [1], the half-inhibitory concentration (IC50) is 21.3 nM.
Turning to `CCCC[C@H]1NC(=O)[C@H](CCCN)NC(=O)[C@H](C(C)C)NC(=O)[C@H](Cc2ccc(-c3ccccc3)cc2)NC(=O)[C@H](C(C)C)NC(=O)[C@H](Cc2c[nH]c3ccccc23)NC(=O)[C@H](CC(=O)O)NC(=O)[C@H](Cc2ccc(OCC(=O)O)cc2)NC(=O)[C@H](Cc2ccncc2)NC(=O)CSC[C@@H](C(=O)N[C@@H](C)C(N)=O)NC(=O)[C@H]([C@@H](C)O)NC(=O)[C@H](C(C)C)NC(=O)[C@H](CC2CCCCC2)NC(=O)[C@H](CCN)NC1=O` [Compound 1693], the IC50 under setting [1] worked out at 9.1 nM.
For `Cc1cccc(C[C@@H]2NC(=O)[C@H](CC(=O)O)NC(=O)[C@H](Cc3ccc(OCC(=O)O)cc3)NC(=O)[C@H](CN)NC(=O)CSC[C@@H](C(N)=O)NC(=O)[C@H]([C@@H](C)O)NC(=O)[C@H](C(C)C)NC(=O)[C@H](CC3CCCCC3)NC(=O)[C@H](CCC(=O)O)NC(=O)[C@@H](CC(C)C)NC(=O)[C@H](CCCN)NC(=O)[C@H](Cc3ccc(OCC(=O)O)cc3)NC(=O)[C@H](Cc3ccc(-c4ccccc4)cc3)NC(=O)[C@H](Cc3ccc(OCC(=O)O)cc3)NC2=O)c1` [Compound 1775] ({CH2CO}-[Dap]Y(Carboxymethyl)D[Phe(3-Me)]Y(Carboxymethyl)[Bip]Y(Carboxymethyl)[Orn][dL]E[Cha]VTC-NH2; thioether N-14), the IC50 under setting [1] was determined as 20.5 nM.
`CC[C@H](C)[C@@H]1NC(=O)[C@H](Cc2ccc(-c3ccccc3)cc2)NC(=O)[C@H](C(C)C)NC(=O)[C@H](Cc2c[nH]c3ccccc23)NC(=O)[C@H](CC(=O)O)NC(=O)[C@H](Cc2ccc(OCC(=O)O)cc2)NC(=O)[C@H](Cc2ccc(OCC(=O)O)cc2)NC(=O)CSC[C@@H](C(=O)N[C@@H](C)C(N)=O)NC(=O)[C@H]([C@@H](C)O)NC(=O)[C@H](C(C)C)NC(=O)[C@H](Cc2ccc(O)cc2)NC(=O)[C@H](CCN)NC(=O)[C@@H](CC(C)C)NC(=O)[C@H](CCCN)NC1=O` [Compound 1680] ({CH2CO}-Y(Carboxymethyl)Y(Carboxymethyl)DWV[Bip]I[Orn][dL][Dab]YVTCA-NH2; thioether N-14): under setting [1], the 50% inhibitory concentration (IC50) stood at 71.7 nM.
